Laboratory results as given in PubChem BioAssay AID1259411 (Chemical Carcinogenesis Research Information System (CCRIS), 2018).
Active and inactive are the calls of the source. The rule behind the calls is not given here.

Tested on: rodent carcinogenicity bioassays, tumor incidence
Assay: CCRIS carcinogenicity studies
How it was run: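 Archive of carcinogenicity, mutagenicity, tumor promotion and tumor inhibition results drawn from journals, NCI reports and other sources, expert-reviewed; covers 1985-2011 and is no longer updated.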

## CCn1c2ccccc2c2cc(N)ccc21
Species: MOUSE, Strain/Sex: B6C3F1/FEMALE, Route: ORAL, Dose: 0, 800, 1200 PPM IN DIET FOR 78 WK (STUDY DURATION: 95-97 WK), Dose: 0, 800, 1200 PPM IN DIET FOR 78 WK (STUDY DURATION: 95-97 WK), Tumor Site: Type of Lesion: LIVER: HEPATOCELLULAR CARCINOMA
  carcinogen call: active; positive
Species: MOUSE, Strain/Sex: B6C3F1/MALE, Route: ORAL, Dose: 0, 800, 1200 PPM IN DIET FOR 78 WK (STUDY DURATION: 94-96 WK), Dose: 0, 800, 1200 PPM IN DIET FOR 78 WK (STUDY DURATION: 94-96 WK), Tumor Site: Type of Lesion: LIVER: HEPATOCELLULAR CARCINOMA, HEPATOCELLULAR ADENOMA OR CARCINOMA
  carcinogen call: active; positive
Species: RAT, Strain/Sex: F344/FEMALE, Route: ORAL, Dose: 0, 800, 2000 PPM IN DIET FOR 78 WK (STUDY DURATION: 105-110 WK), Dose: 0, 800, 2000 PPM IN DIET FOR 78 WK (STUDY DURATION: 105-110 WK), Tumor Site: Type of Lesion: LIVER: NEOPLASTIC NODULE OR HEPATOCELLULAR CARCINOMA, UTERUS OR ENDOMETRIUM: ADENOCARCINOMA (NOS), EAR (ZYMBAL GLAND): S, Tumor Site: Type of Lesion: LIVER: NEOPLASTIC NODULE OR HEPATOCELLULAR CARCINOMA, UTERUS OR ENDOMETRIUM: ADENOCARCINOMA (NOS), EAR (ZYMBAL GLAND): S
  carcinogen call: active; positive
Species: RAT, Strain/Sex: F344/MALE, Route: ORAL, Dose: 0, 800, 2000 PPM IN DIET FOR 78 WK (STUDY DURATION: 104-109 WK), Dose: 0, 800, 2000 PPM IN DIET FOR 78 WK (STUDY DURATION: 104-109 WK), Tumor Site: Type of Lesion: INTEGUMENTARY SYSTEM: BASAL CELL OR SQUAMOUS CELL CARCINOMA OR SQUAMOUS CELL PAPILLOMA, LIVER: HEPATOCELLULAR CARCINOMA
  carcinogen call: active; positive

## Clc1c2ccccc2cc2c1ccc1ccccc12
Species: MOUSE, Strain/Sex: B6C3F1/MALE, Route: INTRAPERITONEAL, Dose: 0, 1600 NMOL (TOTAL DOSE) ADMINISTERED IN DOSES OF 1/7 WITHIN 24 HR OF BIRTH, 2/7 AT 8 DAYS OF AGE AND 4/7 AT 15 DAYS OF, Tumor Site: Type of Lesion: LIVER: ADENOMA, CARCINOMA
  carcinogen call: active; positive

## CCOC(=O)C(C(=O)OCC)=C(NO)c1ccccc1
Species: Mouse, Strain/Sex: Swiss Albino/Female (60/sex/group), Route: Oral, Dose: 0, 10, 30, 100 ppm in feed for 18 mo, Dose: 0, 10, 30, 100 ppm in feed for 18 mo
  carcinogen call: inactive; negative; purity 97%
Species: Mouse, Strain/Sex: Swiss Albino/Male (60/sex/group), Route: Oral, Dose: 0, 10, 30, 100 ppm in feed for 18 mo, Dose: 0, 10, 30, 100 ppm in feed for 18 mo, Tumor Site: Type of Lesion: Liver: Hepatocellular adenoma (2/47, 4/48, 3/49, 5/53), Hepatocellular carcinoma (0/47, 0/48, 2/49, 4/53), Combined (2/4, Tumor Site: Type of Lesion: Liver: Hepatocellular adenoma (2/47, 4/48, 3/49, 5/53), Hepatocellular carcinoma (0/47, 0/48, 2/49, 4/53), Combined (2/4
  carcinogen call: active; positive (statistically significant trend but not incidence); purity 97%
Species: Rat, Strain/Sex: Sprague-Dawley /Female (70/sex/group in dosed animals; 105 controls/sex), Route: Oral, Dose: 0, 60, 190, 600 ppm in feed for 104 wks, Dose: 0, 60, 190, 600 ppm in feed for 104 wks
  carcinogen call: inactive; negative: purity 98.5%; liver: nonneoplastic liver lesions (eosinophilic cellula
Species: Rat, Strain/Sex: Sprague-Dawley /Male (70/sex/group in dosed animals; 105 controls/sex), Route: Oral, Dose: 0, 60, 190, 600 ppm in feed for 104 wks, Dose: 0, 60, 190, 600 ppm in feed for 104 wks
  carcinogen call: inactive; negative: purity 98.5%; liver: nonneoplastic liver lesions (eosinophilic cellula

## C[C@@H]1O[C@@H](OC[C@H]2O[C@@H](Oc3cc4c(O)cc(O)cc4[o+]c3-c3ccc(O)c(O)c3)[C@H](O)[C@@H](O)[C@@H]2O)[C@H](O)[C@H](O)[C@H]1O
Species: RAT, Strain/Sex: WISTAR/FEMALE, Route: ORAL, Dose: 0, 1.7, 4.1 G/KG/D IN DIET FOR 2 YR (STUDY DURATION: 2 YR), Dose: 0, 1.7, 4.1 G/KG/D IN DIET FOR 2 YR (STUDY DURATION: 2 YR)
  carcinogen call: inactive; negative
Species: RAT, Strain/Sex: WISTAR/MALE, Route: ORAL, Dose: 0, 1.5, 3.7 G/KG/D DIET FOR 2 YR (STUDY DURATION: 2 YR), Dose: 0, 1.5, 3.7 G/KG/D DIET FOR 2 YR (STUDY DURATION: 2 YR)
  carcinogen call: inactive; negative

## ClC[C@@H]1O[C@@H]1Cl
Species: MOUSE, Strain/Sex: ICR/FEMALE, Route: DERMAL, Dose: 10 MG IN 0.1 ML ACETONE 3/WK FOR LIFE, Tumor Site: Type of Lesion: INTEGUMENTARY SYSTEM (SKIN): PAPILLOMA, SQUAMOUS CELL CARCINOMA
  carcinogen call: active; positive
Species: MOUSE, Strain/Sex: ICR/FEMALE, Route: SUBCUTANEOUS, Dose: 500 UG IN 0.05 ML TRICAPRYLIN 1/WK FOR LIFE, Tumor Site: Type of Lesion: INJECTION SITE: FIBROSARCOMA
  carcinogen call: active; positive

## O.O.O.O.O.[Cd+2].[Cd+2].[Cl-].[Cl-].[Cl-].[Cl-]
Species: HAMSTER, Strain/Sex: SYRIAN/FEMALE, Route: SUBCUTANEOUS, Dose: 0, 30, 40, 50 UMOL/KG ONCE ON THE FOURTH DAY OF THE ESTROUS CYCLE (STUDY DURATION: 78 WK), Dose: 0, 30, 40, 50 UMOL/KG ONCE ON THE FOURTH DAY OF THE ESTROUS CYCLE (STUDY DURATION: 78 WK)
  carcinogen call: inactive; negative
Species: HAMSTER, Strain/Sex: SYRIAN/MALE, Route: SUBCUTANEOUS, Dose: 0, 20 UMOL/KG ONCE (STUDY DURATION: 104 WK), Tumor Site: Type of Lesion: ADRENAL GLAND: TUMOR
  carcinogen call: active; positive
Species: MOUSE, Strain/Sex: C57/MALE, Route: SUBCUTANEOUS, Dose: 0, 20 UMOL/KG ONCE (STUDY DURATION: 104 WK)
  carcinogen call: inactive; negative
Species: MOUSE, Strain/Sex: NFS/MALE, Route: SUBCUTANEOUS, Dose: 0, 20 UMOL/KG ONCE (STUDY DURATION: 104 WK), Tumor Site: Type of Lesion: LYMPHOID TISSUE: LYMPHOMA
  carcinogen call: active; positive
Species: RAT, Strain/Sex: WISTAR/FEMALE, Route: ORAL, Dose: 0, 1, 3, 10, 50 PPM IN DIET FOR 104 WK (STUDY DURATION: 2 YR), Dose: 0, 1, 3, 10, 50 PPM IN DIET FOR 104 WK (STUDY DURATION: 2 YR)
  carcinogen call: inactive; negative
Species: RAT, Strain/Sex: WISTAR/MALE, Route: ORAL, Dose: 0, 1, 3, 10, 50 PPM IN DIET FOR 104 WK (STUDY DURATION: 2 YR), Dose: 0, 1, 3, 10, 50 PPM IN DIET FOR 104 WK (STUDY DURATION: 2 YR)
  carcinogen call: inactive; negative
Species: RAT, Strain/Sex: WISTAR/MALE, Route: ORAL, Dose: 0, 25, 50, 100, 200 PPM IN DIET FOR 77 WK TO RATS MAINTAINED ON ZINC ADEQUATE (60 PPM) DIET (STUDY DURATION: 79 WK), Dose: 0, 25, 50, 100, 200 PPM IN DIET FOR 77 WK TO RATS MAINTAINED ON ZINC ADEQUATE (60 PPM) DIET (STUDY DURATION: 79 WK), Tumor Site: Type of Lesion: HEMATOPOIETIC SYSTEM: LEUKEMIA, TESTIS: TUMOR
  carcinogen call: active; positive
Species: RAT, Strain/Sex: WISTAR/MALE, Route: ORAL, Dose: 0, 25, 50, 100, 200 PPM IN DIET FOR 77 WK TO RATS MAINTAINED ON ZINC DEFICIENT (7 PPM) DIET (STUDY DURATION: 79 WK), Dose: 0, 25, 50, 100, 200 PPM IN DIET FOR 77 WK TO RATS MAINTAINED ON ZINC DEFICIENT (7 PPM) DIET (STUDY DURATION: 79 WK), Tumor Site: Type of Lesion: HEMATOPOIETIC SYSTEM: LEUKEMIA
  carcinogen call: active; positive
Species: RAT, Strain/Sex: WISTAR/MALE, Route: SUBCUTANEOUS, Dose: 0, 5, 10, 30 UMOL ONCE ADMINISTERED TO RATS FED DIETS ADEQUATE (60 PPM) IN ZINC (STUDY DURATION: 92 WK), Dose: 0, 5, 10, 30 UMOL ONCE ADMINISTERED TO RATS FED DIETS ADEQUATE (60 PPM) IN ZINC (STUDY DURATION: 92 WK), Tumor Site: Type of Lesion: TESTES: ADENOMA
  carcinogen call: active; positive
Species: RAT, Strain/Sex: WISTAR/MALE, Route: SUBCUTANEOUS, Dose: 0, 5, 10, 30 UMOL ONCE ADMINISTERED TO RATS FED DIETS DEFICIENT (7 PPM) IN ZINC (STUDY DURATION: 92 WK), Dose: 0, 5, 10, 30 UMOL ONCE ADMINISTERED TO RATS FED DIETS DEFICIENT (7 PPM) IN ZINC (STUDY DURATION: 92 WK), Tumor Site: Type of Lesion: TESTES: ADENOMA, INJECTION SITE: SARCOMA
  carcinogen call: active; positive
